Assays:
[1] = target: Ephrin type-B receptor 4 (Homo sapiens) (UniProt P54760); assay: Inhibition of human EphB4 (561 to end residues) using poly (Glu, Tyr) 4:1 as substrate at 10 uM after 40 mins in presence of [gamma-33P]-ATP by scintillation counting relative to control
[2] = target: Tyrosine-protein kinase BTK (Homo sapiens) (UniProt Q06187); assay: Inhibition of full-length recombinant human BTK at 10 uM using KVEKIGEGTYGVVYK as substrate measured after 40 mins in presence of [gamma33P]ATP by scintillation counting method relative to control
[3] = target: Cytoplasmic tyrosine-protein kinase BMX (Homo sapiens) (UniProt P51813); assay: Inhibition of full-length recombinant human BMX at 10 uM using poly(Glu, Tyr) 4:1 as substrate measured after 40 mins in presence of [gamma33P]ATP by scintillation counting method relative to control
[4] = tested on: RAC-gamma serine/threonine-protein kinase (Homo sapiens), Q9Y243 [S472D]; assay: Inhibition of recombinant human PKBgamma S472D mutant (117 to end residues) at 10 uM using GRPRTSSFAEGKK as substrate after 40 mins by in presence of [gamma33P]ATP by scintillation counting method relative to control
[5] = target: Cyclin-dependent kinase 5/CDK5 activator 1 (Homo sapiens) (UniProt Q00535+Q15078); assay: Inhibition of recombinant full-length human CDK5/p25 at 10 uM using histone H1 as substrate measured after 40 mins in presence of [gamma33P]ATP by scintillation counting method relative to control; type: protein-complex assay
[6] = target: Dual specificity mitogen-activated protein kinase kinase 2 (Homo sapiens) (UniProt P36507); assay: Inhibition of recombinant full-length human MEK2 at 10 uM using MBP as substrate measured after 40 mins in presence of [gamma33P]ATP by scintillation counting method relative to control
[7] = target: Beta-adrenergic receptor kinase 1 (Homo sapiens) (UniProt P25098); assay: Inhibition of full length recombinant human GRK2 at 10 uM using casein as substrate after 40 mins in presence of [gamma33P]ATP by scintillation counting method relative to control
[8] = target: Transcriptional enhancer factor TEF-3 (Homo sapiens, UniProt Q15561); assay: Inhibition of N-terminal His6 tagged human TEAD4-YBD (217 to 434 residues) expressed in Escherichia coli C43 (DE3) cells assessed as reduction in autopalmitoylation preincubated for 2 hrs followed by palmitoyl alkyne-coenzyme A addition and measured after 30 mins by immunoblot analysis
Homo sapiens [9] = species on record: Homo sapiens; assay: Inhibition of recombinant human Mer H628Q/R794A mutant (557 to 882 residues) at 10 uM using GGMEDIYFEFMGGKKK as substrate measured after 40 mins in presence of [gamma33P]ATP by scintillation counting method relative to control
[10] = target: Tyrosine-protein kinase ABL2 (Homo sapiens) (UniProt P42684); assay: Inhibition of recombinant human ARG (38 to end residues) at 10 uM using EAIYAAPFAKKK as substrate measured after 40 mins in presence of [gamma33P]ATP by scintillation counting method relative to control
Homo sapiens [11] = species on record: Homo sapiens; assay: Inhibition of recombinant human TEC activated F514V mutant (174 to end residues) at 10 uM using EFPIYDFLPAKKK as substrate measured after 40 mins in presence of [gamm33P]ATP by scintillation counting method relative to control
[12] = target: Tyrosine-protein kinase ITK/TSK (Homo sapiens) (UniProt Q08881); assay: Inhibition of recombinant human ITK (352 to 617 residues) at 10 uM using myelin basic protein as substrate measured after 40 mins in presence of [gamm33P]ATP by scintillation counting method relative to control
[13] = tested on: Serine/threonine-protein kinase N1 (Homo sapiens), Q16512 [V901I]; assay: Inhibition of human PRK1 V901I mutant (498 to end residues) at 10 uM using KKLNRTLSFAEPG as substrate measured after 40 mins in presence of [gamma33P]ATP by scintillation counting method relative to control
[14] = target: CDK9/cyclin T1 (Homo sapiens) (UniProt O60563+P50750); assay: Inhibition of recombinant full length human CDK9/cyclinT1 at 10 uM using KTFCGTPEYLAPEVRREPRILSEEEQEMFRDFDYIADWC as substrate measured after 40 mins in presence of [gamma33P]ATP by scintillation counting method relative to control; type: protein-complex assay
[15] = target: Serine-protein kinase ATM (Homo sapiens) (UniProt Q13315); assay: Inhibition of recombinant full-length human ATM at 10 uM using GST-cMyc-p53 as substrate measured after 40 mins by ELISA method relative to control
[16] = target: Fibroblast growth factor receptor 2 (Homo sapiens) (UniProt P21802); assay: Inhibition of recombinant human FGFR2 (456 to 770 residues) at 10 uM using poly(Glu, Tyr) 4:1 as substrate measured after 40 mins in presence of [gamma33P]ATP by scintillation counting method relative to control
[17] = tested on: Phosphorylase b kinase gamma catalytic chain, liver/testis isoform (Homo sapiens), P15735 [F290L]; assay: Inhibition of recombinant human PhKgamma2 F290L mutant (1 to 301 residues) at 10 uM using KKLNRTLSFAEPG as substrate measured after 40 mins in presence of [gamma33P]ATP by scintillation counting method relative to control
Homo sapiens [18] = species on record: Homo sapiens; assay: Inhibition of recombinant human Flt4 V1128L/H1146R mutant (800 to end residues) at 10 uM using GGEEEEYFELVKKKK as substrate measured after 40 mins in presence of [gamma33P]ATP by scintillation counting method relative to control
[19] = target: Serine/threonine-protein kinase N2 (Homo sapiens) (UniProt Q16513); assay: Inhibition of human PRK2 (501 to end residues) at 10 uM using AKRRRLSSLRA as substrate measured after 40 mins in presence of [gamma33P]ATP by scintillation counting method relative to control
[20] = tested on: Transcriptional enhancer factor TEF-3 (Homo sapiens), Q15561 [C367A]; assay: Binding affinity to TEAD4-YBD C367A mutant (unknown origin) assessed as change in melting temperature by SYPRO-dye based thermal shift assay
[21] = target: 5'-AMP-activated protein kinase catalytic subunit alpha-2 (Homo sapiens) (UniProt P54646); assay: Inhibition of recombinant full length human AMPKalpha2 at 10 uM using AMARAASAAALARRR as substrate after 40 mins in presence of [gamma33P]ATP by scintillation counting method relative to control
[22] = target: Tyrosine-protein kinase SYK (Homo sapiens) (UniProt P43405); assay: Inhibition of full length recombinant human Syk at 10 uM using poly(Glu, Tyr) 4:1 as substrate after 40 mins in presence of [gamma33P]ATP by scintillation counting method relative to control
[23] = target: CDK12/Cyclin K (Homo sapiens) (UniProt O75909+Q9NYV4); assay: Inhibition of full-length recombinant human CDK12/cyclinK at 10 uM using RSRSRSRSRSRSRSR as substrate after 40 mins by in presence of [gamma33P]ATP by scintillation counting method relative to control; type: protein-complex assay
Sequence of CDK12/Cyclin K (Homo sapiens) (O75909 whole entry, looked up): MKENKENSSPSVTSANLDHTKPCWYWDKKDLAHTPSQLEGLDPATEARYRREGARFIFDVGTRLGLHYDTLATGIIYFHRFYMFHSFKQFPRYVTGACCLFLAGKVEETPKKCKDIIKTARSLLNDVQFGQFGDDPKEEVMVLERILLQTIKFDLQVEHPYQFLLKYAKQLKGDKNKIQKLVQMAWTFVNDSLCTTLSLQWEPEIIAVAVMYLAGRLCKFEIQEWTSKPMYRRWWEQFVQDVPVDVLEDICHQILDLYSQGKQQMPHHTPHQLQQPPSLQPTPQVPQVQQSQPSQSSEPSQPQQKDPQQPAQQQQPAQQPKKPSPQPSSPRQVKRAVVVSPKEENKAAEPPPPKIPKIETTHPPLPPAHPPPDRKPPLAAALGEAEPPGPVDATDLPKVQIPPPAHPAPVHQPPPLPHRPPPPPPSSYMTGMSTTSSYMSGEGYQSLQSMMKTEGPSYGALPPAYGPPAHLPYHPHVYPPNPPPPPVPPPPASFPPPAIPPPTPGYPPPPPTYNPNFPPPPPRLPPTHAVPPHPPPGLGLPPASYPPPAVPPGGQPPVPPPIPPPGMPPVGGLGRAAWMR
Sequence of CDK12/Cyclin K (Homo sapiens) (Q9NYV4 whole entry, looked up): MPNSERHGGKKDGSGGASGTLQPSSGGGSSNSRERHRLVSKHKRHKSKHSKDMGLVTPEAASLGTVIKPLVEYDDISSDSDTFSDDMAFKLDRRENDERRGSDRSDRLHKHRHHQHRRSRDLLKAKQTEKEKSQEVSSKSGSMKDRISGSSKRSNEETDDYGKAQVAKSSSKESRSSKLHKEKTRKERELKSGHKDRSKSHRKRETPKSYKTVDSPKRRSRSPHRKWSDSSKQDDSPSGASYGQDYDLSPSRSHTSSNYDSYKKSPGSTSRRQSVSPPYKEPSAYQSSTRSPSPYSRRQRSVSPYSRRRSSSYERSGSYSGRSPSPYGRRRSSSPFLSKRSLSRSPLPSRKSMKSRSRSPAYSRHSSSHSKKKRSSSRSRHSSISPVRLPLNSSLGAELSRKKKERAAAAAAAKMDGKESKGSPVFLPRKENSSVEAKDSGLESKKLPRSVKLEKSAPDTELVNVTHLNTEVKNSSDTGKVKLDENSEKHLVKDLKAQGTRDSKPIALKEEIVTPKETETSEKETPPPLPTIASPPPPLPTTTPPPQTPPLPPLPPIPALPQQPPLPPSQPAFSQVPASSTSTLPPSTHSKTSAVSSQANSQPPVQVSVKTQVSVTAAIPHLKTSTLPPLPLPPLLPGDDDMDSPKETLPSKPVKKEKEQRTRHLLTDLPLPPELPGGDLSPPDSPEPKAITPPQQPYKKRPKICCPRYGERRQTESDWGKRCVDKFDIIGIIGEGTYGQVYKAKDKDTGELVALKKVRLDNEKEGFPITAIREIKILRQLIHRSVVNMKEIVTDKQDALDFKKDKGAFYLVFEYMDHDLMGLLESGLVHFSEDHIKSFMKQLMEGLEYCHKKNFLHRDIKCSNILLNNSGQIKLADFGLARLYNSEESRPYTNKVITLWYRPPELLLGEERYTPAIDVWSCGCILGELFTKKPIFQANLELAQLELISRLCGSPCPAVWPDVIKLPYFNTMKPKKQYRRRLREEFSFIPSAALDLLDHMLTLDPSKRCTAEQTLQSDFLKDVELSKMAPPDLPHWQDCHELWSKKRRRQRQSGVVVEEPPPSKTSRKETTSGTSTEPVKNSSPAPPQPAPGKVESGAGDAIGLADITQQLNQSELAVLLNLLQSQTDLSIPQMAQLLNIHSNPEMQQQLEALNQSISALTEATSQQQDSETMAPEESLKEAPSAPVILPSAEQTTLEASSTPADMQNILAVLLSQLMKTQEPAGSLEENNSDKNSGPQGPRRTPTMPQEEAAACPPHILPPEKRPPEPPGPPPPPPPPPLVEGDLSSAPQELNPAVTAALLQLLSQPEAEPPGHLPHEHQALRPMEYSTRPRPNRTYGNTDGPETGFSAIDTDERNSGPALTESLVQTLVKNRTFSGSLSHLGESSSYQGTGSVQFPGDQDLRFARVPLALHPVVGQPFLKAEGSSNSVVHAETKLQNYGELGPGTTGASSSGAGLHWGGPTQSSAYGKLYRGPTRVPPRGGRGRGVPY

Sequence of Tyrosine-protein kinase BTK (Homo sapiens) (Q06187 whole entry): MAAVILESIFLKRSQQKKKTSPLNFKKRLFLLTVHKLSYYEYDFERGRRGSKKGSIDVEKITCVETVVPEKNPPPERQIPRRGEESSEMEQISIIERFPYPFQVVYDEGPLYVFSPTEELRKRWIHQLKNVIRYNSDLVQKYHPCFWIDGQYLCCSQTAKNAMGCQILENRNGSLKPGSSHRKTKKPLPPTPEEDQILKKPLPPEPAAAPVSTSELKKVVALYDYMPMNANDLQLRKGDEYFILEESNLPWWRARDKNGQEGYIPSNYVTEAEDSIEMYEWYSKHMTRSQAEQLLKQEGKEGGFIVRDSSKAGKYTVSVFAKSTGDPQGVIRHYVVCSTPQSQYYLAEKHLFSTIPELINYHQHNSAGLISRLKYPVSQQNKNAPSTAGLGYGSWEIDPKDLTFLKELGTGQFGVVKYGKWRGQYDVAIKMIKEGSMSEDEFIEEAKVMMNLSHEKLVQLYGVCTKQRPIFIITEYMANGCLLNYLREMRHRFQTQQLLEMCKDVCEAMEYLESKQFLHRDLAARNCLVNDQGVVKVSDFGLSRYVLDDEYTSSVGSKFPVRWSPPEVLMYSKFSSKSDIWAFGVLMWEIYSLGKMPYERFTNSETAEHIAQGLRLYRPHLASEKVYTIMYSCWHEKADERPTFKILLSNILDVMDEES
Sequence of Dual specificity mitogen-activated protein kinase kinase 2 (Homo sapiens) (P36507 whole entry): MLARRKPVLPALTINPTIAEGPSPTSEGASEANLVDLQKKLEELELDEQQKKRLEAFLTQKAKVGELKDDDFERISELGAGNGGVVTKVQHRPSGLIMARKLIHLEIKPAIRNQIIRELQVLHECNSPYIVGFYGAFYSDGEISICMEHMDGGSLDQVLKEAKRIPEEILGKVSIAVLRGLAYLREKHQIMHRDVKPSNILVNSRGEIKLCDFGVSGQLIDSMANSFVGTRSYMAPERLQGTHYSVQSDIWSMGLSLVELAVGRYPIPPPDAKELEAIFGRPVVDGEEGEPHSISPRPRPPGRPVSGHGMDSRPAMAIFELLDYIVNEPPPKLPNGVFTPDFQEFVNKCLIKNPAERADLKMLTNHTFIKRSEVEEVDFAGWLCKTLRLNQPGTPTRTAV
Sequence of Transcriptional enhancer factor TEF-3 (Q15561 whole entry, the tested form may be a part): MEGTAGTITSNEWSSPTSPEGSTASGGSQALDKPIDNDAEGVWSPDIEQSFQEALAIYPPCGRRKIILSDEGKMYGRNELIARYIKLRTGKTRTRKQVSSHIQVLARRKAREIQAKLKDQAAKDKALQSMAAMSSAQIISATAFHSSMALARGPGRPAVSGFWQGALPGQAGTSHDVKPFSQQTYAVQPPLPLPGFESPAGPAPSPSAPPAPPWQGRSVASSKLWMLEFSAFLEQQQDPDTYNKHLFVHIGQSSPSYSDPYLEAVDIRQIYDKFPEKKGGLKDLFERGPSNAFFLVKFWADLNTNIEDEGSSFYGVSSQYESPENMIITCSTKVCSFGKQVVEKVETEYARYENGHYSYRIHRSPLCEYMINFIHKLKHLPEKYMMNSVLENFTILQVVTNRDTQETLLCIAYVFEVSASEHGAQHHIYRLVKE
Sequence of Serine/threonine-protein kinase N2 (Homo sapiens) (Q16513 whole entry, looked up): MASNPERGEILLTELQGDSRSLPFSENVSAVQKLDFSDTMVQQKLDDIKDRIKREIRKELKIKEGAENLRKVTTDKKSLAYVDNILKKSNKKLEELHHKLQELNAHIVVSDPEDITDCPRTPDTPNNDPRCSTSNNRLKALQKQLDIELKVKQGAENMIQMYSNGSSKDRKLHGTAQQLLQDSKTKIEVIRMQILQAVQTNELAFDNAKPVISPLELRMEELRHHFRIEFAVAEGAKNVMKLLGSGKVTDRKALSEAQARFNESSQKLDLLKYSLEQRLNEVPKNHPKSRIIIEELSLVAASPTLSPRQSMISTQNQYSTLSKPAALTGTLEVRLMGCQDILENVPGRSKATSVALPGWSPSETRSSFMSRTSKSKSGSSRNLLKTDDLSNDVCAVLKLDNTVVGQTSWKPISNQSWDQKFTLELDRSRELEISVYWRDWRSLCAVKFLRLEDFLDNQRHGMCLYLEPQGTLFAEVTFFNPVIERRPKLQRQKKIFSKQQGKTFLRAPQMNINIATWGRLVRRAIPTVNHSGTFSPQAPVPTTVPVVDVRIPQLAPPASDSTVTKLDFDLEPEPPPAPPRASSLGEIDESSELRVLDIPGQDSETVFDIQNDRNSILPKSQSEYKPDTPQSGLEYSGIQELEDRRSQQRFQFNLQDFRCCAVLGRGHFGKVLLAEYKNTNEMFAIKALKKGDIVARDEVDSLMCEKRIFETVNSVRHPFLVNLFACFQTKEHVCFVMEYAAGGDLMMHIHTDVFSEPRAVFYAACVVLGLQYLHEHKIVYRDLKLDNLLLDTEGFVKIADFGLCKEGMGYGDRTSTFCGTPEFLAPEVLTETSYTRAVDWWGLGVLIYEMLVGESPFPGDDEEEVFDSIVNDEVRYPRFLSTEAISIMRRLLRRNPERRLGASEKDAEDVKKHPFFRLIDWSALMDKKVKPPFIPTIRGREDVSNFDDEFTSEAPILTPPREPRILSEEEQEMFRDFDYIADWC
Sequence of RAC-gamma serine/threonine-protein kinase (Homo sapiens), Q9Y243 [S472D] (Q9Y243 whole entry S472D): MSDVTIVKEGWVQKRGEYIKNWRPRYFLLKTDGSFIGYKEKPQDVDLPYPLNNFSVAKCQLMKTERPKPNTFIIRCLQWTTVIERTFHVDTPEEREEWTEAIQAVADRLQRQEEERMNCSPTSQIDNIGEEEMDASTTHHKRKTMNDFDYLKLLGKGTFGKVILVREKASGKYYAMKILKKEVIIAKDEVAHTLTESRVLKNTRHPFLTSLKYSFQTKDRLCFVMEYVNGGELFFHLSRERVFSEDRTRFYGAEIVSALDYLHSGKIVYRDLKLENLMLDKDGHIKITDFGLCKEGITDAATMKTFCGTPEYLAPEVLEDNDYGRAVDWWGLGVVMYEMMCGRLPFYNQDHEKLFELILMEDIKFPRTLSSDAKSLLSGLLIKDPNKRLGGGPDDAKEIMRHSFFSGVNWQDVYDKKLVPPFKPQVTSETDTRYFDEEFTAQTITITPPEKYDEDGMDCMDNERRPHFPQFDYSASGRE
Sequence of Transcriptional enhancer factor TEF-3 (Homo sapiens), Q15561 [C367A] (Q15561 whole entry C367A): as the sequence (Q15561 whole entry, the tested form may be a part) above, with C367A counted along it

`C=CS(=O)(=O)Nc1ccc(Cc2ccc3ccccc3c2)cc1` gave an inhibition [1] of 8%, an inhibition [2] of 5% and an inhibition [3] of 19%. The inhibition [4] was 8%, the inhibition [5] was 0% and the inhibition [6] was -9%. It also gave an inhibition [7] of -9%, an IC50 [8] of 197 nM and an inhibition (Homo sapiens [9]) of 13%. The inhibition [10] was 16%, the inhibition (Homo sapiens [11]) was -8% and the inhibition [12] was 6%. For the same compound, the inhibition [13] was 2%, the inhibition [14] was 3% and the inhibition [15] was 2%. The inhibition [16] was -4%, the inhibition [17] was 6% and the inhibition (Homo sapiens [18]) was 15%. For the same compound, the inhibition [19] was 4%, the ΔTm [20] was 1.2 °C and the inhibition [21] was 5%. It also gave an inhibition [22] of -4% and an inhibition [23] of 11%.

Reference: ChEMBL document CHEMBL4376829, “Discovery and biological evaluation of vinylsulfonamide derivatives as highly potent, covalent TEAD autopalmitoylation inhibitors” (Eur J Med Chem, 2019)
